Test results taken from BindingDB's records for doi:10.1016/0960-894X(96)00057-1 (1996).

Key:
[1] = Compound was tested for inhibition of HL60 cell adhesion to recombinant P-selectin-IgG fusion protein obtained from transfected COS cells
[2] = as above; remark: listed apart in the source

IC50 [1]	IC50 [2]	Compound
900 µM		CC(=O)N[C@@H]1[C@H](OCCCCCC/N=C(S)/N=C2\C=CC(=C3c4ccc(O)cc4Oc4cc(O)ccc43)C(C(=O)O)=C2)O[C@@H](CO)[C@@H](O[C@@H]2O[C@@H](CO)[C@H](O)[C@H](O[C@]3(C(=O)O)C[C@@H](O)[C@@H](NC(C)=O)[C@H]([C@H](O)[C@H](O)CO)O3)[C@@H]2O)[C@@H]1O[C@@H]1O[C@@H](C)[C@@H](O)[C@H](O)[C@@H]1O
26 µM		CC(=O)N[C@H]1[C@H]([C@H](O)[C@H](O)CO)O[C@@](O[C@@H]2[C@H](O)[C@H](O[C@H]3[C@H](O[C@@H]4O[C@@H](C)[C@@H](O)[C@H](O)[C@@H]4O)[C@H](NC(C)=O)[C@H](NC(=O)[C@H](C)NC(=O)[C@H](CC(=O)O)NC(=O)CNC(=O)[C@@H](N)CCCN=C(N)N)O[C@H]3CO)O[C@@H](CO)[C@@H]2O)(C(=O)O)C[C@H]1O
	1500 µM	CC(=O)N[C@@H]1[C@H](OCCCCCCNC(=O)CCC(=O)O)O[C@@H](CO)[C@@H](O[C@@H]2O[C@@H](CO)[C@H](O)[C@H](O[C@]3(C(=O)O)C[C@@H](O)[C@@H](NC(C)=O)[C@H]([C@H](O)[C@H](O)CO)O3)[C@@H]2O)[C@@H]1O[C@@H]1O[C@@H](C)[C@@H](O)[C@H](O)[C@@H]1O [Sialyl-LewisX Conjugate]
	380 µM	CC(=O)N[C@@H]1[C@H](OCCCCCCNC(=O)[C@H]2CC[C@H](CN3C(=O)C=CC3=O)CC2)O[C@@H](CO)[C@@H](O[C@@H]2O[C@@H](CO)[C@H](O)[C@H](O[C@]3(C(=O)O)C[C@@H](O)[C@@H](NC(C)=O)[C@H]([C@H](O)[C@H](O)CO)O3)[C@@H]2O)[C@@H]1O[C@@H]1O[C@@H](C)[C@@H](O)[C@H](O)[C@@H]1O [Sialyl-LewisX Conjugate]
